Experimental data: article PMC12291464, “Modifying Antifungal Peptides as Safe Food Preservatives” (Journal of Agricultural and Food Chemistry, 2025)
≈ marks a conversion by molar mass, not a printed value. Entries after “also recorded” stand apart in the source; their conditions may differ. Read-outs that look alike come from different tables or passages of the source. Residues, ends and D or L forms follow the SMILES beside them.

Legend:
[1] = test system: filamentous fungi conidia (spores); experiment: Fungicidal assay (CFU log reduction); type: cell-based; conditions: 8 μM H2O2
Procedure: A 10^4 CFU/mL conidia load was incubated in yeast extract (YE) medium at 37 °C for and 25 °C for and at 200 rpm for 4 h, and 100 μL was transferred to 900 μL of PBS with peptide (final conidia load = 10^3 CFU/mL). The negative control had no peptides, and for the positive control, we used H2O2 (final concentration of 8 μM). The treated conidia were incubated for an additional 4 h at the same temperature at 200 rpm. Once the second incubation was over, the inoculum suspension was diluted, and 100 μL of both the original and the dilution was spread on Petri plates with PDA with tetracycline (10 μg/mL) and chloramphenicol (25 μg/mL) medium to exclude the growth of bacteria. The plates were incubated at matching temperatures depending on the strain. After 48 h, the CFU/mL was calculated; CFU/mL = number of counted CFU × 10^–n (n = serial dilution).
2 Fungicidal activity of BP100 and P-113 and their derivatives. Spores were counted using a hemocytometer and diluted to […]. After 4 h of incubation with the selected peptides in two different concentrations (25 and 100 μM), samples were diluted and both original and diluted samples were plated. Colonies were counted after 48 h of incubation and are presented as the log reduction of CFU/mL. […] The experiments were repeated 3 times (biological repeats) in triplicate (average ± SEM). […]

A. Niger = conditions: 24 h
Procedure: (§1) A1163 was grown on potato dextrose agar (PDA) medium at 37 °C for 5 days, and then the conidia were scraped and suspended in PBS with 0.025% (v/v) Tween 20, counted using a hemocytometer, and kept at 4 °C. isolated from peanuts and Pe21 (both kindly provided by Dr. Edward Sionov, ARO, Israel) were grown on PDA medium at 25 °C for 5 days, and then the conidia were scraped and suspended in PBS with 0.025% Tween 20 and kept at 4 °C. RP and methicillin-resistant (MRSA) were grown on LB agar plates, and individual colonies were picked and grown in Mueller–Hinton (MH) broth overnight at 37 °C. was grown on PDA medium at 30 °C, and individual colonies were picked and grown in yeast extract peptone dextrose (YPD) media overnight at 30 °C. All fungal and bacteria strains were maintained at −80 °C in 50% (v/v) glycerol stock.
(§2) For filamentous fungi strains, serial dilutions of 100 μL ranged from 100 to 0.78 μM for each peptide in a 96 well plate using RPMI1640 with 165 μM MOPS. A total of 80 μL of inoculum was suspended with a conidia load of 5 × 10^3 CFU/mL (final density of 2 × 10^3 CFU/mL), and 20 μL of resazurin was diluted in RPMI1640 solution of 0.02% [final concentration of 0.0002% (w/v)]. In the control, 100 μL of treatment was replaced by the same volume with medium, while the negative control was 180 μL of the medium and 20 μL of resazurin solution. Plates were incubated at 37 °C for and 25 °C for and for 24 h. The results were quantified by measuring absorbance at 570 nm with a microplate reader (Tecan). The mean absorbance values were used in subsequent calculations. The growth of resazurin reduction and growth inhibition was calculated using the following normalization: % growth=100−% reduction=abs of test agent−abs of untreated control/abs of reduced resazurin−abs of untreated control The MIC was defined as the lowest concentration of the peptide that inhibited fungal growth by 90%, allowing for only 10% of the normal growth. For bacterial and yeast strains studies, serial dilutions of 100 μL ranged from 100 to 0.78 μM for each peptide in a 96 well plate using MH media for bacteria and YPD for yeast. A total of 100 μL of the microbe in suitable media (5 × 10^5 CFU/mL) was inoculated in each well. In the untreated well (e.g., control), 100 μL of treatment was replaced by the same volume with medium, while in the negative control, media were only without microbes and peptides. After 24 h of incubation at 37 °C for bacteria and 30 °C for yeast, plates were read at 595 nm and MIC was defined as the lowest concentration of peptide that reduced the growth of the microbe to 10% growth.

A. fumigatus = conditions: 24 h
Procedure: as §1, §2

E. coli = test system: E. coli
Procedure: as §1, §2

MRSA = test system: MRSA
Procedure: as §1, §2

P. expansum = conditions: 24 h
Procedure: as §1, §2

HEK cells = experiment: Toxicity assay on the human cell line (MTT); type: cell-based; conditions: 100 to 0.78 μM peptide, 24 h, read at 595 nm, normalized to untreated cells; 3 biological repeats in triplicates
Procedure: HEK cells were grown at 37 °C with 5% CO2 in Deulbecco’s modifield Eagle’s medium (DMEM, Sigma) with 2 mM L-glutamine, 1% (v/v) penicillin and streptomycin (Penstrep), and 20% (v/v) fetal bovine serum. The day before the experiment, cells were detached by gentle scraping, counted with a hemocytometer to a concentration of 10^6 cells/mL, and seeded into a 96-well microplate (Nunc, Thermo Scientific). The following day, serial dilutions from 100 to 0.78 μM for each peptide were introduced to the cells with DMEM lacking phenol red for 24 h. Later, 50 μL of 3-(4,5-dimethylthiazol-2-yl)-2,5-diphenyltetrazolium bromide (MTT, 0.5 mg/mL) was added to the wells for 2 h of incubation. At the end, 100 μL of DMSO was added for 30 min at 37 °C and 200 rpm, and the plate was read at 595 nm and normalized to the untreated cells.
Peptide Concentration [µM] Peptide Concentration [µM]
Supplementary 3. Cytotoxicity examination. HEK cells were cultured in DMEM with L-glutamine, PenStrep, and fetal bovine serum at 37°C and 5% CO2. The day before the experiment, cells were detached, counted (10^6 cells/ml), and seeded into a 96-well plate. […] Cell viability was assessed using the MTT assay; after adding 50µl of MTT and incubating for 2 hours, 100µl DMSO was added for 30minutes at 37 °C, 200rpm. Next, absorbance was measured at 595nm and normalized to untreated controls. […]

chymotrypsin = chymotrypsin (Bos taurus, UniProt P00766); experiment: Digestion examination of the peptides by chymotrypsin
Procedure: Peptides were dissolved in 1 mL of 100 μM NH4HCO3 to a final concentration of 4 mM, followed by the addition of 1 μL chymotrypsin (1 mg/mL), and were incubated at 37 °C and 150 rpm. At each time point, 75 μL of the solution was transferred to 90 °C for inactivation of the enzyme. After the peptides were frozen in liquid nitrogen and lyophilized, they were dissolved in DMSO and were analyzed in HPLC using Analytic Phenomenex Luna C18 (5 μm, 4.6 × 250 mm) with standard RP-HPLC conditions. The area under curve (AUC) was calculated at each time point and normalized to time = 0.
4 Peptide’s secondary structure and digestibility. (A) CD spectra of the peptides (50 μM) in DDW was measured using a J-1100 spectropolarimeter (Jasco), with the following parameters: wavelength range of 190–260 nm, bandwidth of 1 nm, data pitch of 0.1 nm, and three accumulations. A baseline spectrum was recorded using a 0.1 cm quartz cuvette filled with DDW and subtracted from the peptide spectrum to obtain the corrected CD spectrum. […] The area under the curve (AUC) was calculated at each time point and normalized to t = 0. The y axis ranges from 100%, meaning not digested at all, to 0%, meaning fully digested.

[2] = RPMI1640 with MOPS, resazurin, absorbance 570 nm, MIC = lowest concentration inhibiting growth by 90%, average ± SE, 3 biological repeats in triplicates
[3] = MH media, 5 × 10^5 CFU/mL, 24 h at 37 °C, read at 595 nm, MIC = growth reduced to 10%, average ± SE, 3 biological repeats in triplicates

SMILES | fungicidal activity, positive control [1] | MIC Values, A. Niger (A. Niger; [2]) | MIC Values, A. fumigatus (A. fumigatus; [2]) | MIC Values, E. coli (E. coli; [3]) | MIC Values, MRSA (MRSA; [3]) | MIC Values, P. expansum (P. expansum; [2]) | cytotoxicity against HEK mammalian cells (MTT assay) (HEK cells) | digestion by chymotrypsin (chymotrypsin) | MIC Values, A. Niger (A. Niger) | MIC Values, A. fumigatus (A. fumigatus) | MIC Values, E. coli (E. coli; 24 h) | MIC Values, MRSA (MRSA; 24 h) | MIC Values, P. expansum (P. expansum) | digestion by chymotrypsin (chymotrypsin; peptide 4 mM in 100 μM NH4HCO3, 1 μL chymotrypsin (1 mg/mL), 37 °C, 150 rpm, analytical RP-HPLC C18, AUC normalized to t = 0)
OO [H2O2] | completely eradicated | – | – | – | – | – | – | – | – | – | – | – | – | –
CC[C@H](C)[C@H](NC(=O)[C@H](CCCCN)NC(=O)[C@H](CCCCN)NC(=O)[C@H](Cc1ccccc1)NC(=O)[C@H](CC(C)C)NC(=O)[C@H](CCCCN)NC(=O)[C@@H](N)Cc1c[nH]c2ccccc12)C(=O)N[C@@H](CC(C)C)C(=O)N[C@@H](CCCCN)C(=O)N[C@@H](Cc1ccc(O)cc1)C(=O)N[C@@H](CC(C)C)C(N)=O [BP100 K1W] | – | 10 ± 2 µM (≈ 14.8 µg/mL) | 8 ± 2 µM (≈ 11.8 µg/mL) | 2 ± 0 µM (≈ 2.96 µg/mL) | 3 ± 0 µM (≈ 4.44 µg/mL) | 6 ± 0 µM (≈ 8.87 µg/mL) | low to no cytotoxicity | fully degraded within a short time frame | – | – | – | – | – | –
CC[C@H](C)[C@H](NC(=O)[C@H](CCCCN)NC(=O)[C@H](CCCCN)NC(=O)[C@H](Cc1ccccc1)NC(=O)[C@H](CC(C)C)NC(=O)[C@H](CCCCN)NC(=O)[C@H](CCCCN)NC(=O)[C@H](CC(C)C)NC(=O)[C@H](Cc1ccc(O)cc1)NC(=O)[C@H](CCCCN)NC(=O)[C@H](CC(C)C)NC(=O)[C@@H](NC(=O)[C@H](CCCCN)NC(=O)[C@H](CCCCN)NC(=O)[C@H](Cc1ccccc1)NC(=O)[C@H](CC(C)C)NC(=O)[C@H](CCCCN)NC(=O)[C@@H](N)CCCCN)[C@@H](C)CC)C(=O)N[C@@H](CC(C)C)C(=O)N[C@@H](CCCCN)C(=O)N[C@@H](Cc1ccc(O)cc1)C(=O)N[C@@H](CC(C)C)C(N)=O [BP100 Double] (H-KKLFKKILKYLKKLFKKILKYL-NH2) | – | 5 ± 1 µM (≈ 14.1 µg/mL) | 3 ± 0.5 µM (≈ 8.47 µg/mL) | >200 µM | >200 µM | 2 ± 0 µM (≈ 5.65 µg/mL) | – | less prone for digestions; also recorded: not digested | – | – | – | – | – | –
C[C@H](N)C(=O)N[C@@H](CCCCN)C(=O)N[C@@H](CCCNC(=N)N)C(=O)N[C@@H](Cc1c[nH]cn1)C(=O)N[C@@H](Cc1c[nH]cn1)C(=O)NCC(=O)N[C@@H](Cc1ccc(O)cc1)C(=O)N[C@@H](CCCCN)C(=O)N[C@@H](CCCNC(=N)N)C(=O)N[C@@H](CCCCN)C(=O)N[C@@H](Cc1ccccc1)C(=O)N[C@@H](Cc1c[nH]cn1)C(=O)N[C@@H](C)C(=O)N[C@@H](CCCCN)C(=O)N[C@@H](CCCNC(=N)N)C(=O)N[C@@H](Cc1c[nH]cn1)C(=O)N[C@@H](Cc1c[nH]cn1)C(=O)NCC(=O)N[C@@H](Cc1ccc(O)cc1)C(=O)N[C@@H](CCCCN)C(=O)N[C@@H](CCCNC(=N)N)C(=O)N[C@@H](CCCCN)C(=O)N[C@@H](Cc1ccccc1)C(=O)N[C@@H](Cc1c[nH]cn1)C(=O)N[C@@H](C)C(=O)N[C@@H](CCCCN)C(=O)N[C@@H](CCCNC(=N)N)C(=O)N[C@@H](Cc1c[nH]cn1)C(=O)N[C@@H](Cc1c[nH]cn1)C(=O)NCC(=O)N[C@@H](Cc1ccc(O)cc1)C(=O)N[C@@H](CCCCN)C(=O)N[C@@H](CCCNC(=N)N)C(=O)N[C@@H](CCCCN)C(=O)N[C@@H](Cc1ccccc1)C(=O)N[C@@H](Cc1c[nH]cn1)C(N)=O [P-113 Triple] (H-AKRHHGYKRKFHAKRHHGYKRKFHAKRHHGYKRKFH-NH2) | – | – | – | – | – | – | low to no cytotoxicity | – | 16 ± 4 µM (≈ 74.5 µg/mL) | 5 ± 2 µM (≈ 23.3 µg/mL) | 42 ± 14 µM (≈ 196 µg/mL) | 25 ± 0 µM (≈ 116 µg/mL) | 5 ± 2 µM (≈ 23.3 µg/mL) | fully degraded within a short time frame
